Measurements: patent US5525625A (priority 1995, dated 1996)

Assays:
[1] = system: MAP kinase; test: In vitro MAP kinase assay; type: biochemical; conditions: 50 μM concentration
Experimental: Inhibitory activity was also confirmed in direct assays. For MAP kinase, 1 μg GST-MAPK was incubated with 40 μg MBP for 15 minutes at 30° C. in a final volume of 50 μL containing 50 mM Tris (pH 7.5), 10 μM MgCl2, 2 μM EGTA, and 10 μM [γ-^32 P]ATP. The reaction was stopped by addition of Laemmli SDS sample buffer and phosphorylated MBP resolved by electrophoresis on a 10% polyacrylamide gel. Radioactivity incorporated into MBP was determined by autoradiography, and subsequently by excision of the bands followed by scintillation counting.

[2] = target: EGFR Tyrosine kinase (Homo sapiens, UniProt P00533); test: Kinase selectivity: EGFR Tyrosine kinase; type: biochemical; conditions: 50 μM concentration
Sequence of EGFR Tyrosine kinase (P00533 25-1210): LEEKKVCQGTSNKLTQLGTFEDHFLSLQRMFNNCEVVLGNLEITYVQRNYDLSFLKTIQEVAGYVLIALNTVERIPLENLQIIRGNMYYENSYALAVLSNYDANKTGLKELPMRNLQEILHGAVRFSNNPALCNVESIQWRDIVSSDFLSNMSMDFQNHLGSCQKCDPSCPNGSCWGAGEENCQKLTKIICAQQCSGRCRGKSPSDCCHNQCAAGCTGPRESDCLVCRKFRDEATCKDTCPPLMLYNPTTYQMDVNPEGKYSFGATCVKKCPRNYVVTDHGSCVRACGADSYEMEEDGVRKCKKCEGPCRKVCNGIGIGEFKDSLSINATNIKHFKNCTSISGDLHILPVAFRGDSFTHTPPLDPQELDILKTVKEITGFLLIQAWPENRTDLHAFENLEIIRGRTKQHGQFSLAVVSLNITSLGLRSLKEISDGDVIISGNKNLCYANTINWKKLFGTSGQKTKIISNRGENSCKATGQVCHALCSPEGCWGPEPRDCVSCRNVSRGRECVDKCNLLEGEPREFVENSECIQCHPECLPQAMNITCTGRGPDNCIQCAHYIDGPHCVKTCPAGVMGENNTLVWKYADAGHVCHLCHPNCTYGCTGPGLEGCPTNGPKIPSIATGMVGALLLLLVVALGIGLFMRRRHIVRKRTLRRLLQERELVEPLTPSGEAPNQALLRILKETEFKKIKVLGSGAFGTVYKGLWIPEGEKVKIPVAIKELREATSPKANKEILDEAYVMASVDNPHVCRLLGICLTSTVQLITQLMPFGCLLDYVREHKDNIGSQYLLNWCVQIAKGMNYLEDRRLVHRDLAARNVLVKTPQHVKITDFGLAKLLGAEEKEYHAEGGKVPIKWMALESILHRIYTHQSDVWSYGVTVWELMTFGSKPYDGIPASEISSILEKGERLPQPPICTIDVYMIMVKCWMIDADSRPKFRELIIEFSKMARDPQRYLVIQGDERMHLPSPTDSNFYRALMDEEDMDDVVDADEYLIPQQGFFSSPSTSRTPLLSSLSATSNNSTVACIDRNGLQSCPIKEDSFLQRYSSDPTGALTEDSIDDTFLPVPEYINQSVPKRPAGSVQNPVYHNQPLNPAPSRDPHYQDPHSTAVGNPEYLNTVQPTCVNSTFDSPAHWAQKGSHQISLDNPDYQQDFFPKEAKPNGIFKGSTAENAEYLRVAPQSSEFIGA

[3] = system: K562; test: Growth in soft-agar, K562; type: cell-based; conditions: Homo sapiens; K562, anchorage independent (soft agar clonogenicity)
Experimental: (§1) Cells were seeded into 35-mm dishes at 5 to 10,000 cells/dish using growth medium containing 0.3% agar. After chilling to solidify the agar, cells were transfered to a 37° C. incubator. After 7 to 10 days growth, visible colonies were manually enumerated with the aid of a dissecting microscope.

[4] = target: RAF (Homo sapiens, UniProt P04049); test: Kinase selectivity: RAF; type: biochemical; conditions: 50 μM concentration
Sequence of RAF (P04049 whole entry): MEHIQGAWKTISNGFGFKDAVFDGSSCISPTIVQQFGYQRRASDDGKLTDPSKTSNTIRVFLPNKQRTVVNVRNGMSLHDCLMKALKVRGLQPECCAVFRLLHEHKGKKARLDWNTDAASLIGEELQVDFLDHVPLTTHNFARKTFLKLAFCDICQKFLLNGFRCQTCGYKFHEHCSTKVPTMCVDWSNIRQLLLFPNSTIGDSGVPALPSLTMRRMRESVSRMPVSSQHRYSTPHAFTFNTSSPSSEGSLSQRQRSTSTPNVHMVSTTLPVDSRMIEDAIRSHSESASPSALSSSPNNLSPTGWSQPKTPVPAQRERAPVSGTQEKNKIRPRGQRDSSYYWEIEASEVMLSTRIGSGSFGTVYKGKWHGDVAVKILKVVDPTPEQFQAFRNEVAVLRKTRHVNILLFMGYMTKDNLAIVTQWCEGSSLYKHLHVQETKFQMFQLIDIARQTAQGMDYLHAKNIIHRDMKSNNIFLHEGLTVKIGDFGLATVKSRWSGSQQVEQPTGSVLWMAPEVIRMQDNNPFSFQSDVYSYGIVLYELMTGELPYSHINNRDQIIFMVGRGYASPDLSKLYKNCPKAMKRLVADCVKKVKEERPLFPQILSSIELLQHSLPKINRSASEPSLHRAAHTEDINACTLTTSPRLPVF

[5] = target: E. coli histidine kinase NRII (Escherichia coli, UniProt P0AFB5); test: Kinase selectivity: E. coli histidine kinase NRII; type: biochemical; conditions: 50 μM concentration
Sequence of E. coli histidine kinase NRII (P0AFB5 whole entry): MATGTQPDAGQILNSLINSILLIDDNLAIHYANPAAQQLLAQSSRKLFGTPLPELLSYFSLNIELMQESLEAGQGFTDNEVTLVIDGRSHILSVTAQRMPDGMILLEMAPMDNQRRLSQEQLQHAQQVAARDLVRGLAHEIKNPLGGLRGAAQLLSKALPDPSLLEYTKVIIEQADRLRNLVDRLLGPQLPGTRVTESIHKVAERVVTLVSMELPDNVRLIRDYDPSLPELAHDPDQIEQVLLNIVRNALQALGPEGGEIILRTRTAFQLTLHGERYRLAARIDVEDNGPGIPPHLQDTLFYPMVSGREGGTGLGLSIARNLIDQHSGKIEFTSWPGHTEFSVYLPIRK

[6] = system: 3T3-L1 adipocyte cells; test: Insulin stimulated uptake of radiolabeled 2-deoxyglucose; type: cell-based, murine; conditions: 10 μM concentration
[7] = system: Balb 3T3; test: 3H-Thymidine incorporation, PDGF-stimulated, Balb 3T3; type: cell-based; conditions: Mus musculus; Balb 3T3, PDGF-stimulated
Experimental: (§2) Cells were plated in multi-well plates and grown to near confluence. The media was then removed and replaced with growth media containing 1% bovine serum albumin. After 24-hour serum starvation, compounds and specific growth factors were added and incubations continued for an additional 24 hours. During the final 2 hours, 3H-thymidine was added to the medium. To terminate the incubations, the medium was removed and cell layers washed twice with ice-cold phosphate-buffered saline. After the final wash, ice-cold 5% trichloroacetic acid was added and the cells incubated for 15 minutes at room temperature. The trichloro-acetic acid solution was then removed and the cell layer washed three times with distilled water. After the final wash, the cell layer was solubilized by addition of 2% sodium dodecylsulfate. Radioactivity in this solution was determined by scintillation counting.

[8] = target: NGFR (trk-A) Tyrosine kinase (Homo sapiens, UniProt P04629); test: Kinase selectivity: NGFR (trk-A) Tyrosine kinase; type: biochemical; conditions: 50 μM concentration
Sequence of NGFR (trk-A) Tyrosine kinase (P04629 33-796, species assumed): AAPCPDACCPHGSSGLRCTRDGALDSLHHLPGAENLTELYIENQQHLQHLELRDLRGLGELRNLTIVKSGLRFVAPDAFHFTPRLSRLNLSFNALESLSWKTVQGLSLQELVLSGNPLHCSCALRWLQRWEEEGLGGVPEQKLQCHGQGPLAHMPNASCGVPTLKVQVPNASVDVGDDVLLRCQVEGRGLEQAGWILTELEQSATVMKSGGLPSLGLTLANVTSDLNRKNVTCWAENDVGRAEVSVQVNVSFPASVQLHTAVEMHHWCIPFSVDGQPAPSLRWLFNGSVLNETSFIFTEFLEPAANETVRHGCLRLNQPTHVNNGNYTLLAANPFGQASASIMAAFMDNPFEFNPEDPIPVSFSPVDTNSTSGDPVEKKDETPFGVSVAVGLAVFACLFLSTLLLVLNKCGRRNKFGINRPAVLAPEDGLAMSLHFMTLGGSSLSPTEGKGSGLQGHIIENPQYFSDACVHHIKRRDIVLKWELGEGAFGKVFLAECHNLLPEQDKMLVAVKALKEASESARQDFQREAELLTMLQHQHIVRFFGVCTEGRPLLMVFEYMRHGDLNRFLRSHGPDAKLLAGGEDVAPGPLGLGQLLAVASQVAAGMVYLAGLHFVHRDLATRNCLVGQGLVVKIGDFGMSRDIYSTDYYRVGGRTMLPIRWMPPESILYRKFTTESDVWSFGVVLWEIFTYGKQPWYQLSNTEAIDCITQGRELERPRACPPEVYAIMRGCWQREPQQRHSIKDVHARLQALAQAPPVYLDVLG

[9] = target: T1, MEK (Homo sapiens, UniProt Q02750); type: biochemical
T1 sequence (Q02750 whole entry): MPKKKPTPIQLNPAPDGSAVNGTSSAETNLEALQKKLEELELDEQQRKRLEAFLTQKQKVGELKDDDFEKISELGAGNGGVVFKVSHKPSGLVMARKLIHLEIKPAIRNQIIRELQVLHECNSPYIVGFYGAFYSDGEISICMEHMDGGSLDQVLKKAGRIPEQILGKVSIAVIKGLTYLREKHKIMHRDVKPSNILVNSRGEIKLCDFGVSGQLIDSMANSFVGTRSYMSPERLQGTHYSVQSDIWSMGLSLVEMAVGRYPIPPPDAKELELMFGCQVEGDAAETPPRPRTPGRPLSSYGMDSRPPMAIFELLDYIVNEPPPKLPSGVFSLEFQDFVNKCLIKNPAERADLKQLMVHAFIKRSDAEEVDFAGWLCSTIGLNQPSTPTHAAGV

[10] = system: PI-3 kinase; test: Kinase selectivity: PI-3 kinase; type: biochemical; conditions: 50 μM concentration
[11] = system: RSV/RAT-1; test: Growth in soft-agar, RSV/RAT-1; type: cell-based; conditions: read-out: Agar Growth IC50
Experimental: as §1

[12] = system: 3T3-L1 adipocyte cells; test: Insulin-stimulated synthesis of glycogen; type: cell-based, murine; conditions: 10 μM concentration
[13] = system: EGFR/Swiss 3T3; test: Monolayer growth, EGFR/Swiss 3T3; type: cell-based; conditions: EGFR/Swiss 3T3, anchorage dependent
Experimental: (§3) Cells were plated into multi-well plates at 10 to 20,000 cells/mL. Forty-eight hours after seeding, compounds were added to the cell growth medium and incubation was continued for 2 additional days. Cells were then removed from the wells by incubation with trypsin and enumerated with a Coulter counter. Growth in soft-agar.

[14] = target: T1, MEK; type: biochemical; conditions: order of addition experiments
Experimental: Incorporation of ^32 P into myelin basic protein (MBP) was assayed in the presence of a glutathione S-transferase fusion protein containing p44MAP kinase (GST-MAPK) and a glutathione S-transferase fusion protein containing p45MEK (GST-MEK). […] Compounds were assessed at 10 μM for ability to inhibit incorporation of ^32 P.
To ascertain whether compounds were inhibiting GST-MEK or GST MAPK, two additional protocols were employed. In the first protocol, compounds were added to tubes containing GST-MEK, followed by addition of GST-MAPK, MBP and [γ-^32 P]ATP. In the second protocol, compounds were added to tubes containing both GST-MEK and GST-MAPK, followed by MBP and [γ-^32 P]ATP.

[15] = system: v-Raf/3Y1; test: Monolayer growth, v-Raf/3Y1; type: cell-based; conditions: v-Raf/3Y1, anchorage dependent
Experimental: as §3

[16] = system: K562; test: Monolayer growth, K562; type: cell-based; conditions: Homo sapiens; K562, anchorage dependent
Experimental: as §3

[17] = system: RSV/RAT-1; test: Monolayer growth, RSV/RAT-1; type: cell-based; conditions: read-out: Monolayer Growth IC50
Experimental: as §3

[18] = system: K-Ras/Balb; test: Growth in soft-agar, K-Ras/Balb; type: cell-based; conditions: Mus musculus, anchorage independent (soft agar clonogenicity)
Experimental: as §1

[19] = system: EGFR/Swiss 3T3; test: Growth in soft-agar, EGFR/Swiss 3T3; type: cell-based; conditions: EGFR/Swiss 3T3, anchorage independent (soft agar clonogenicity)
Experimental: as §1

[20] = system: K-Balb 3T3; test: 3H-Thymidine incorporation, PDGF-stimulated, K-Balb 3T3; type: cell-based; conditions: K-Balb 3T3, PDGF-stimulated
Experimental: as §2

[21] = system: 3T3-L1 adipocyte cells; test: Insulin-stimulated synthesis of lipid; type: cell-based, murine; conditions: 10 μM concentration
[22] = system: v-Raf/3Y1; test: Growth in soft-agar, v-Raf/3Y1; type: cell-based; conditions: v-Raf/3Y1, anchorage independent (soft agar clonogenicity)
Experimental: as §1

[23] = system: K-Ras/Balb; test: Monolayer growth, K-Ras/Balb; type: cell-based; conditions: Mus musculus, anchorage dependent
Experimental: as §3

[24] = system: Protein kinase C (rat brain homogenate c-PKC mixture); test: Kinase selectivity: Protein kinase C; type: biochemical; conditions: 50 μM concentration
[25] = target: PDGFRβ Tyrosine kinase (Homo sapiens, UniProt P09619); test: Kinase selectivity: PDGFRβ Tyrosine kinase; type: biochemical; conditions: 50 μM concentration
Sequence of PDGFRβ Tyrosine kinase (P09619 33-1106): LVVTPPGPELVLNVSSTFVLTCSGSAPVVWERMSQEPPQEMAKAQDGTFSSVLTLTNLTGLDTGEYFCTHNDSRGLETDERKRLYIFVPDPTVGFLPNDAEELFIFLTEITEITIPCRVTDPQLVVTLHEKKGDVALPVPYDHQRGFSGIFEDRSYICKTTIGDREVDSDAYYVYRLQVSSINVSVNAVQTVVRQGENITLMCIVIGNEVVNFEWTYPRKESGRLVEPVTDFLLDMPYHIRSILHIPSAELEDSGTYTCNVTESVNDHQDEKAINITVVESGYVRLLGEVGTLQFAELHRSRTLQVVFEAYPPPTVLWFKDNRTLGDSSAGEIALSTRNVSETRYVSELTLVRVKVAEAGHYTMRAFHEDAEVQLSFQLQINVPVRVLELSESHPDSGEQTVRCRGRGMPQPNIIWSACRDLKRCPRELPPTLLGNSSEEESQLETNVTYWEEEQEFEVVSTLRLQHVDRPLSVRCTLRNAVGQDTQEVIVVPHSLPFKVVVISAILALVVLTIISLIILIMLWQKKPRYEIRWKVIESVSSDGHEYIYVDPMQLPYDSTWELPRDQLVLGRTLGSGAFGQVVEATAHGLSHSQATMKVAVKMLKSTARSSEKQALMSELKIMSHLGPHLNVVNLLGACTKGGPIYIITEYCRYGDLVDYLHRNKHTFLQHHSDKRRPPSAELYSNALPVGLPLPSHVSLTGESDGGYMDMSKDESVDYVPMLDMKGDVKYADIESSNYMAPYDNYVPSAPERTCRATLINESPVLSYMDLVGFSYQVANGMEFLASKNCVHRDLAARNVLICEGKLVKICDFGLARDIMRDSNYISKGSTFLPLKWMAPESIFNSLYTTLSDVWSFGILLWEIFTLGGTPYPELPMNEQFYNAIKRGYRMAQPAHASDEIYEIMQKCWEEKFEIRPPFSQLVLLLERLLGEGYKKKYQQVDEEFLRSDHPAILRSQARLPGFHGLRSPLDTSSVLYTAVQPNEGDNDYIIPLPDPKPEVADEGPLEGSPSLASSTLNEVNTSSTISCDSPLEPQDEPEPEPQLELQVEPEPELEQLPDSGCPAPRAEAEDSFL

[26] = target: v-Src (Rous sarcoma virus (strain Schmidt-Ruppin A), UniProt P00524); test: Kinase selectivity: v-Src; type: biochemical; conditions: 50 μM concentration
Sequence of v-Src (P00524 2-526): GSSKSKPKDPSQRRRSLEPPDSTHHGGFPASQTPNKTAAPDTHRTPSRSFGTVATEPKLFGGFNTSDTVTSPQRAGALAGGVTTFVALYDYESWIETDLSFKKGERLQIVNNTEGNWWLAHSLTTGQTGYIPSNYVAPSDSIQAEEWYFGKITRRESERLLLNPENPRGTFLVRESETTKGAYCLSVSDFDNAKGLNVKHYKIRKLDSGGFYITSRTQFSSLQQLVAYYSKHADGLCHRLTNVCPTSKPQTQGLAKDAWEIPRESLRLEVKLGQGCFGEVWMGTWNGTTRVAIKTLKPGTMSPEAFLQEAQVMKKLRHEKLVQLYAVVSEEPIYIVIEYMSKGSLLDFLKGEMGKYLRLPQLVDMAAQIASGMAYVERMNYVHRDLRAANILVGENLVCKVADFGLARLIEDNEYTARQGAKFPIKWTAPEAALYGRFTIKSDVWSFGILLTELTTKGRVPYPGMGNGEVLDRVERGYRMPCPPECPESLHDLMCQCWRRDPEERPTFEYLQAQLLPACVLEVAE

[27] = system: MAP kinase; test: Whole cell MAP kinase assay, 3T3-L1 cells stimulated with insulin; type: cell-based, murine
Experimental: Cells were then serum-deprived overnight. Cells were exposed to the desired concentrations of compound or vehicle (DMSO) for 30 minutes, followed by addition of a growth factor, e.g., PDGF (100 ng/mL). After a 5-minute treatment with the growth factor, cells were washed with PBS, then lysed in a buffer consisting of 70 mM NaCl, 10 mM HEPES (pH 7.4), 50 mM glycerol phosphate, and 1% Triton X-100. Lysates were clarified by centrifugation at 13,000×g for 10 minutes. Five micrograms of the resulting supernatants were incubated with 10 μg microtubule associated protein-2 (Map2) for 15 minutes at 30° C. in a final volume of 25 μL containing 50 mM Tris (pH 7.4), 10 mM MgCl2, 2 mM EGTA and 30 μM [γ-^32 P]ATP. Reactions were terminated by addition of Laemmli sample buffer.

[28] = system: MAP kinase; test: Whole cell MAP kinase assay, PC-12 cells stimulated with NGF; type: cell-based; conditions: Rattus norvegicus, read-out: IC50, activation of MAP kinase in whole cells
Experimental: To determine if compounds were able to block activation of MAP kinase in whole cells, the following protocol was used: Cells were plated in multi-well plates and grown to confluence. Cells were then serum-deprived overnight. Cells were exposed to the desired concentrations of compound or vehicle (DMSO) for 30 minutes, followed by addition of a growth factor, e.g., PDGF (100 ng/mL). After a 5-minute treatment with the growth factor, cells were washed with PBS, then lysed in a buffer consisting of 70 mM NaCl, 10 mM HEPES (pH 7.4), 50 mM glycerol phosphate, and 1% Triton X-100. Lysates were clarified by centrifugation at 13,000×g for 10 minutes. Five micrograms of the resulting supernatants were incubated with 10 μg microtubule associated protein-2 (Map2) for 15 minutes at 30° C. in a final volume of 25 μL containing 50 mM Tris (pH 7.4), 10 mM MgCl2, 2 mM EGTA and 30 μM [γ-^32 P]ATP. Reactions were terminated by addition of Laemmli sample buffer. Phosphorylated Map2 was resolved on 7.5% acrylamide gels and incorporated radioactivity determined by autoradiography and subsequent excision of the bands followed by scintillation counting.

[29] = system: K-Ras/NRK; test: Growth in soft-agar, K-Ras/NRK; type: cell-based; conditions: anchorage independent (soft agar clonogenicity)
Experimental: as §1

[30] = system: K-Ras/NRK; test: Monolayer growth, K-Ras/NRK; type: cell-based; conditions: anchorage dependent
Experimental: as §3

**Q.** Which results are given for `COc1cccc(-c2cc(=O)c3ccccc3o2)c1N` [invention compound, 2-(2-amino-3-methoxyphenyl)-4-oxo-4H-[1]benzopyran]?
**A.** inhibition of MAP kinase [1]: does not appreciably inhibit; inhibition of EGFR Tyrosine kinase [2]: does not appreciably inhibit; IC50 [3]: 60 µM; inhibition of RAF [4]: does not appreciably inhibit; inhibition of E. coli histidine kinase NRII [5]: does not appreciably inhibit; effect on insulin stimulated uptake of radiolabeled 2-deoxyglucose [6]: does not affect; effect on insulin stimulated uptake of radiolabeled 2-deoxyglucose ([6]; listed as compound): no effect; IC50 [7]: 8 µM; inhibition of NGFR (trk-A) Tyrosine kinase [8]: does not appreciably inhibit; competition with ATP (kinetic analysis) [9]: not competitive with ATP; inhibition of PI-3 kinase [10]: does not appreciably inhibit; IC50 [11]: 60 µM; effect on insulin-stimulated synthesis of glycogen [12]: does not affect; effect on insulin-stimulated synthesis of glycogen ([12]; listed as compound): no effect; IC50 [13]: > 100 µM; enzyme inhibited in the cascade (MEK or MAP kinase) [14]: inhibiting MEK and not MAP kinase; IC50 [15]: 50 µM; IC50 [16]: > 100 µM; IC50 [17]: > 100 µM; IC50 [18]: 1.5 µM; IC50 [19]: > 100 µM; IC50 [20]: 10 µM; effect on insulin-stimulated synthesis of lipid [21]: does not affect; effect on insulin-stimulated synthesis of lipid ([21]; listed as compound): no effect; IC50 [22]: 4.5 µM; IC50 [23]: 25 µM; inhibition of Protein kinase C [24]: does not appreciably inhibit; inhibition of PDGFRβ Tyrosine kinase [25]: does not appreciably inhibit; inhibition of v-Src [26]: does not appreciably inhibit; IC50 ([27]; Mus musculus, 3T3-L1 cells stimulated with insulin, read-out: IC50, activation of MAP kinase in whole cells): 3 µM; activation of insulin stimulated MAP kinase ([27]; murine 3T3-L1 adipocytes, insulin): does inhibit; IC50 [28]: 7 µM; IC50 [29]: 2 µM; IC50 [30]: 40 µM
